Results as given in patent publication US20240082250A1, “NEDDYLATION INHIBITION FOR USE IN THE TREATMENT OF HUMAN IMMUNODEFICIENCY VIRUS (HIV) INFECTION” (priority 2022, published 2024).

Assays:
[1] = test system: A3G incorporated into virions; assay: Immunoblot of A3G in virions pelleted from ACH2 supernatant; format: cell-based, HIV; conditions: ACH2 cells; MLN before and during TNFa reactivation; immunoblot of viral pellets, n=3
From the text: (§1) (B) MLN treatment of ACH2 cells before and during TNFa provirus reactivation increases the amount of A3G incorporated into virions, a strong candidate mechanism for decreased infectivity shown in (A). Virions from ACH2 cell supernatant were pelleted over a 20% sucrose cushion. […] A3G signal (black bars) and p24 signal (grey bars) from n=3 experiments are quantified on the right (Panel 2 in B).
Virions from ACH2 cell supernatant were pelleted over a 20% sucrose cushion. […] A3G signal (black bars) and p24 signal (grey bars) from n=3 experiments are quantified on the right (Panel 2) in FIG. 3B.

ACH2 cells = assay: Annexin V / SYTOX Green apoptosis flow cytometry in ACH2 cells; format: cell-based; conditions: 200 nM MLN 6 hours before and during 10 ng/mL TNFa, 16 hours post-TNFa
Protocol: (§2) ACH2 cells were pretreated for 6 hours with 200 nM MLN prior to provirus reactivation with 10 ng/mL TNFa. 16 hours post-TNFa addition cells were collected; apoptosis was measured via flow cytometry by staining for Annexin V and SYTOX Green DNA intercalant. […] Data was collected 24 hours after TNFa addition. (C) CD4+ T cells from 3 healthy donors were activated for 48 hrs with anti-CD3/CD28 antibodies. Cells were then treated with 200 nM of MLN and apoptosis was measured after 6, 16, and 24 hrs of drug treatment using flow cytometry. * p<0.05 *** p=0.0002 (D) Expression of RNA encoding cell cycling and apoptotic targets assessed before in ACH2 cells was determined in primary CD4 T cells via RT-qPCR. Gene expression was normalized to 18S control ** p=0.0033 **** p<0.0001 A&B) n=3 donors.
(§3) ACH2 cells were treated with 200 nM MLN for 6 hours before and then during reactivation with 10 ng/mL TNFa. 16 hours post-TNFa addition, cells were collected and percentage of apoptotic cells increased with MLN treatment upon reactivation (FIG. 8A).

intracellular p24 [2] = assay: Intracellular p24 production in ACH2 cells exposed to LRAs; format: cell-based, HIV; conditions: ACH2 cells treated with TNFa (n=4), PMA/i (n=4), JQ1 (n=3); vs DMSO control
From the text: (§4) (B) MLN reduces intracellular p24 production from J-Lat 6.3 cells exposed to TNFa, as well as from ACH2 cells exposed to TNFa. […] (C) Six hour treatment of J-Lat cells (both J-Lat 6.3 and J-Lat 11.1) with MLN before and during LRA exposure reduces HIV promoter-driven GFP expression after exposure to TNFa, PMAi and JQ1.
(§5) MLN decreases reactivation of latent provirus, as shown in VIF+, replication-competent provirus, from the latently infected ACH2 T cell line based on HIV capsid p24 amounts in cell culture supernatant fluid and intracellularly after 3 different LRAs: tumor necrosis factor alpha (TNFa) at 10 ng/mL; PMA/ionomycin (PMAi) at 405 pM phorbol 12-myristate 13-acetate (PMA) and 6.7 nM ionomycin (eBiosciences™ stimulation cocktail); and JQ1 at 100 nM (FIGS. 5 and 6). […] MLN reduces intracellular p24 production from ACH2 1 cells treated with TNFa, PMAi, and JQ1, compared to DMSO control (FIG. 6A). […] HIV promoter-driven RNA is also shown to be decreased by MLN before/during TNFa or PMAi (FIG. 7). […] ACH2 cells were pretreated for 6 hours with DMSO, or MLN at […], and then reactivated with 10 ng/mL TNFa or PMA/ionomycin.

HIV capsid antigen (p24) [3] = assay: Immunoblot of p24 in reactivated virions pelleted from ACH2 supernatant; format: cell-based; conditions: LRA-exposed ACH2 cells; MLN vs control
Protocol: as §5

HIV capsid antigen (p24) [4] = assay: Immunoblot of p24 in reactivated virions pelleted from J-Lat 6.3 supernatant; format: cell-based; conditions: LRA-exposed J-Lat 6.3 cells; MLN vs control
[5] = test system: HIV promoter-driven GFP expression; assay: HIV promoter-driven GFP expression in J-Lat 6.3 cells; format: cell-based; conditions: six hour MLN treatment before and during LRA exposure (TNFa, PMAi, JQ1)
From the text: as §4, §5

[6] = test system: Cullin RING Ligase (CRL^Vif)-mediated degradation of APOBEC3G (A3G); conditions: ex vivo, de novo HIV infections; previously reported; cited from earlier work
[7] = test system: Cullin 2 (CUL2) neddylation; assay: Immunoblot for Cullin 2 (CUL2) neddylation in ACH2 cells; format: cell-based; design: dose or concentration left out as unconfirmed; conditions: MLN, with and without TNFa reactivation
HIV gag RNA = HIV gag RNA RT-qPCR in ACH2 cells; format: cell-based; conditions: MLN at before and during TNFa 10 ng/mL or PMA/ionomycin, 48 hours after reactivation, vs DMSO
Protocol: Gag RNA is reduced in ACH2 cells as measured by RT-qPCR 48 hours after reactivation. ACH2 cells were treated with either DMSO or MLN (at […]) before and during exposure to either 10 ng/mL TNFa (plot on left) or 405 pM PMA and 6.7 nM ionomycin (eBiosciences stimulation cocktail) (plot on right); 4 separate ACH2 cell cultures were used for each plot's experiment.
as §5

NOXA, PUMA, p21, p53 RNA = assay: RT-qPCR for apoptotic targets and cell cycle indicators in ACH2 cells; format: cell-based; conditions: 200 nM MLN before and during 10 ng/mL TNFa, 24 hours after TNFa
Protocol: as §2, §3

PUMA, NOXA, p21, p53 RNA = assay: RT-qPCR for apoptotic targets and cell cycle indicators in primary CD4 T cells; format: cell-based; conditions: MLN
Protocol: as §2, §3

HIV capsid antigen (p24) [8] = assay: Extracellular p24 ELISA of ACH2 culture supernatant after provirus reactivation; format: cell-based; conditions: ACH2 cells; MLN before and during LRAs (TNFa 10 ng/mL, PMA/i, JQ1), n=3 each
Protocol: as §5

[9] = test system: HIV promoter-driven GFP expression; assay: HIV promoter-driven GFP expression in J-Lat 11.1 cells; format: cell-based; conditions: six hour MLN treatment before and during LRA exposure (TNFa, PMAi, JQ1)
From the text: as §4, §5

A3G [10] = assay: A3G LMM/HMM distribution, sucrose density gradient and immunoblot, CD4+CD45RO+ memory T cells; format: cell-based; conditions: CD4+CD45RO+ memory T cells from healthy donors, CD3/28 stimulated; 4 days, 100 nM or 200 nM MLN vs DMSO
Protocol: (§6) A3G low molecular mass forms (LMM) (fractions 1-5) and HMM complexes (fractions 7-12) are visualized by immunoblotting of fractions collected after density gradient centrifugation of a 5-40% sucrose gradient. […] (B) CD4+CD45RO+ memory T cells were isolated from healthy donors; cells were then stimulated with CD3/28 Abs (*) and cultured for 4 days with DMSO, 100 nM, or 200 nM MLN before density gradient centrifugation and immunoblotting of gradient fractions.

intracellular p24 [11] = assay: Intracellular p24 production in J-Lat 6.3 cells exposed to TNFa; format: cell-based, HIV
From the text: as §4

A3G [12] = assay: A3G LMM/HMM distribution, sucrose density gradient and immunoblot, H9 cells; format: cell-based; conditions: 200 nM MLN for 4 or 6 days
Protocol: as §6

HIV = assay: Infectivity of HIV reactivated from ACH2 cells, TZM-bl reporter cell luciferase assay; format: cell-based; conditions: ACH2 cells treated with MLN 100 nM or 200 nM before and during LRA (TNFa, PMAi, JQ1), vs DMSO, p24-normalized
Protocol: as §1
Virus infectivity was determined by infecting TZM-bl reporter cell line with p24-equivalent amounts of culture supernatant fluid (e.g., normalized to the same p24 amount, as a surrogate for inoculating the same number of virions) from cells pretreated with MLN or DMSO control and reactivated by the 3 LRAs). Supernatant infectivity was measured via luciferase activity in the form of […] (RFU) where higher RFU signifies greater infectivity. Average RFU values were normalized to the control condition (LRA alone without MLN treatment) such that maximum infectivity seen in that control condition is set to 100%.

primary CD4+ T cells = assay: Apoptosis flow cytometry in anti-CD3/CD28-activated uninfected primary CD4+ T cells; format: cell-based; conditions: uninfected CD4+ T cells from 3 healthy donors, anti-CD3/CD28 activated 48 hrs; 200 nM MLN; at 16 hours
Protocol: as §2, §3

**Q.** Which “amount of A3G incorporated into virions” value [1] does the source give for `NS(=O)(=O)OC[C@@H]1C[C@@H](n2ccc3c(N[C@H]4CCc5ccccc54)ncnc32)C[C@@H]1O` [MLN, pevonedistat] here?
**A.** increases

**Q.** What about the “percentage of cells dying from apoptosis (Annexin V)” value (ACH2 cells) of the same compound?
**A.** increases

**Q.** What about the “intracellular p24 production” value (intracellular p24 [2]) of the same compound?
**A.** significantly reduces

**Q.** And the “p24 antigen in pelleted reactivated virions (immunoblot)” value (HIV capsid antigen (p24) [3])?
**A.** reduced

**Q.** What about the “p24 antigen in pelleted reactivated virions (immunoblot)” value (HIV capsid antigen (p24) [4]) of the same compound?
**A.** reduced

**Q.** And the “HIV promoter-driven GFP expression” value [5]?
**A.** reduces

**Q.** And the “CRL^Vif-mediated degradation of APOBEC3G (A3G)” value [6]?
**A.** block

**Q.** And the “Cullin 2 (CUL2) neddylation” value [7]?
**A.** inhibits

**Q.** What about the “HIV gag RNA expression (RT-qPCR)” value (HIV gag RNA) of the same compound?
**A.** reduced

**Q.** What about the “p53 RNA expression” value (NOXA, PUMA, p21, p53 RNA) of the same compound?
**A.** does not increase

**Q.** What about the “relative expression of RNA encoding NOXA” value (NOXA, PUMA, p21, p53 RNA) of the same compound?
**A.** increased

**Q.** And the “relative expression of RNA encoding PUMA” value (NOXA, PUMA, p21, p53 RNA)?
**A.** increased

**Q.** What about the “relative expression of RNA encoding p21” value (NOXA, PUMA, p21, p53 RNA) of the same compound?
**A.** increased

**Q.** And the “p53 RNA expression” value (PUMA, NOXA, p21, p53 RNA)?
**A.** did not significantly increase

**Q.** And the “NOXA gene expression (RT-qPCR)” value (PUMA, NOXA, p21, p53 RNA; normalized to 18S)?
**A.** increase

**Q.** What about the “PUMA gene expression (RT-qPCR)” value (PUMA, NOXA, p21, p53 RNA; normalized to 18S) of the same compound?
**A.** increase

**Q.** And the “p21 expression (RT-qPCR)” value (PUMA, NOXA, p21, p53 RNA; normalized to 18S)?
**A.** increase

**Q.** And the “extracellular p24 antigen in culture supernatant fluid (ELISA)” value (HIV capsid antigen (p24) [8])?
**A.** significantly reduced

**Q.** And the “HIV promoter-driven GFP expression” value [9]?
**A.** reduces

**Q.** What about the “intracellular distribution of A3G (LMM form vs HMM complexes)” value (A3G [10]) of the same compound?
**A.** shift to LMM form

**Q.** What about the “intracellular p24 production” value (intracellular p24 [11]) of the same compound?
**A.** reduces

**Q.** And the “intracellular distribution of A3G (LMM form vs HMM complexes)” value (A3G [12])?
**A.** shift to LMM form

**Q.** And the “infectivity of HIV in culture supernatant fluid” value (HIV)?
**A.** less infectious

**Q.** And the “apoptosis-mediated cell death (Annexin V)” value (primary CD4+ T cells)?
**A.** increase
